In brackets after ≈: the same amount, converted by molar mass.
How the values were obtained:
[1] = tested on: cytoplasmic free Ca2+ in P. falciparum HB3 trophozoites; test: Ca2+ live imaging, Fluo-4; conditions: SC compounds 10 and 20 μM; CPA 10 μM
PK study = type: in vivo, rat; conditions: rat, plasma, po; rats
Experimental: On the treatment day, all animals were weighed and the dosing volume was calculated for each individual animal according to its actual body weight. All animal were dosed once. Blood samples were taken at different time points and plasma was collected after centrifugation (10,000g, 10 min, 4 °C). Plasma samples were analysed by LC–MS/MS. […] All relevant observations were recorded. The PK studies in cynomolgus monkeys and beagle dogs were performed by the Laboratory of Pharmacology and Toxicology (LPT), Hamburg, and PK and toxicity studies in mice and rats were performed by the 4SC Discovery GmbH, Munich. PK parameters were obtained by a non-compartment analysis, using Kinetica 4.1 (Thermo Scientific).

Plasmodium vinckei = test: Rodent malaria model; type: in vivo; conditions: P. vinckei, 30 mg kg-1 i.p. 1x4 days
Source text: The two SC compounds were also active in the Plasmodium vinckei rodent malaria model system.

[2] = In vitro metabolism in liver microsomes; conditions: human microsome assay
HepG2 cells = test: Cytotoxicity; conditions: 10 μM
Permeability assay = type: in vitro ADME; conditions: human; CACO 2 cells, 10 μM, apical side, 2 h
Experimental: The study was conducted by Cyprotex (Macclesfield, United Kingdom). CACO 2 cells (Sigma-Aldrich, catalogue: 86010202) were seeded on Millipore Millicell plates and formed a confluent monolayer over 20 days before the experiment. On day 20, the tested compounds at a final concentration of 10 μM were added to the apical side of the membrane. The transport of the compound across the monolayer was monitored over a 2 h period by liquid chromatography (LC)–MS/MS quantification. The permeability coefficient (Papp) was calculated from the following equation: [drawing 1] , where dQ/dt is the rate of permeation of the drug across the cells, C0 the donor compartment concentration at time zero and A the area of the cell monolayer. C0 was obtained from analysis of the dosing solution at the start of the experiment.

Solubility in water = conditions: water
Plasmodium berghei = test: Rodent malaria model; type: in vivo; conditions: for Outcome: P. berghei
Experimental: This was the case for both an in vivo 4 day dosing regimen of 30 mg kg^−1 per day and an ex vivo one-cycle growth inhibition assay. […] Differential therapeutic efficacy in various rodent model systems is a well-established phenomenon and is typically associated with charged compounds, such as positively charged amidines and negatively charged phosphoric acid or carboxylic acid containing drugs. The phenomenon is explained based on selective uptake of charged compounds through parasite-induced channels, termed new permeation pathways, in the host cell plasma membrane and species-specific characteristics of the new permeation pathways.

P. chabaudi = test: Rodent malaria model; type: in vivo; conditions: 10 mg kg-1 i.v. 1x4 days
P. falciparum strain Dd2 = test: Growth inhibition assay, asexual blood stages; type: cell-based, Plasmodium falciparum; conditions: Plasmodium falciparum
Dd2 SC83288 resistant = test: Growth inhibition assay; type: cell-based; conditions: Plasmodium falciparum
Experimental: (§1) To identify the mode of action/mechanism of resistance of SC81458 and […], a chemogenomic approach was used, whereby resistant parasites were obtained by in vitro drug pressure selection and subjected to whole-genome sequencing to identify the genetic basis of resistance. Three independent selections of Dd2 parasites at an initial population of 10^10 infected red blood cells (performed in 150 ml flasks, 2% haematocrit) were subjected to SC81458 or SC83288 at a starting concentration of 50 nM. […] Drug resistance was confirmed by measuring the IC50s, after two consecutive cycles in absence of the drug, using a SYBRGreen growth inhibition assay as previously described. After up to 200 days of drug pressure, the drug-resistant lines were clones by limiting dilution for single-cell isolation and genomic DNA was extracted using the DNeasy Blood&Tissue kit (Qiagen, USA) and subjected to ultra-deep sequencing.

Dd2 SC81458 resistant = test: Growth inhibition assay; type: cell-based; conditions: Plasmodium falciparum
Experimental: as §1

[3] = tested on: Dd2 P. falciparum parasites; test: In vitro parasite reduction ratio assay (Sanz protocol); type: cell-based, Plasmodium falciparum

Structure (SMILES): CC(=O)C1=C(O)[C@@H]2[C@H]3c4c[nH]c5cccc(c45)C[C@H]3C(C)(C)N2C1=O [CPA, cyclopiazonic acid, reference compound]
- effect on cytoplasmic free Ca^2+ [1]: induced a strong Ca^2+ responses

Structure (SMILES): N=C(N)c1cccc(NC(=O)Nc2ccc(S(=O)(=O)NCc3ccc(S(N)(=O)=O)cc3)cc2)c1 [SC09064]
- bioavailability (PK study): 3%
- Outcome (Plasmodium vinckei): inactive
- metabolic stability, residual after 1 h of incubation [2]: 65%
- Ames test (Ames test): negative
- adverse effects on HepG2 cells (HepG2 cells): no adverse effects
- Papp at 2 h, 10 μM (Permeability assay): 2.8 nm/s
- solubility (Solubility in water): 0.316 mg/mL (≈ 629 µM)
- Outcome (Plasmodium berghei; 10 mg kg-1 i.v. 1x4 days): inactive
- Outcome (Plasmodium berghei; 50 mg kg-1 i.p. 1x4 days): inactive
- activity against P. berghei (Plasmodium berghei; in vivo): no activity
- Outcome (P. chabaudi): inactive
- IC50 (P. falciparum strain Dd2; DD2, 72 h, Dd2, standard proliferation assay, 72 h exposure): 10 ± 3 nM

Structure (SMILES): O=C1C(O)=C([C@H]2CC[C@H](c3ccc(Cl)cc3)CC2)C(=O)c2ccccc21 [atovaquone, reference compound]
- IC50 (Dd2 SC83288 resistant): 0.8 ± 0.1 nM
- IC50 (Dd2 SC81458 resistant): 0.3 ± 0.1 nM
- In vitro PCT99.9% ([3]; 10 times IC50, Dd2): 89 ± 7 h
- In vitro lag phase ([3]; 10 times IC50, Dd2): > 24 h
- In vitro logPRR ([3]; 10 times IC50, Dd2, over 48 h): 2.1±0.4
- IC50 (P. falciparum strain Dd2; DD2, Dd2, Supplementary Table 11): 0.6 ± 0.1 nM
